Test results published in patent US20130245075A1, “MELANOGENESIS INHIBITION-METHODS AND COMPOSITIONS THEREOF” (priority 2012, published 2013).
Converted amounts (≈) assume the structure as drawn.

Test system: B16 F1 mouse melanoma cells
Experiment: Melanogenesis inhibition: intracellular melanin in α-MSH/cAMP-induced B16F1 cells
Format: cell-based
Settings: B16-F1, 216 h, melanin induced by α-MSH/cAMP, 9 days treatment, melanin extracted by 1N NaOH, absorbance 405 nm, read-out: IC50 (inhibition of melanin formation)
Protocol: The intracellular melanin in B16 F1 mouse melanoma cells treated with varying concentrations of the sample is extracted by 1N NaOH. The brown colored melanin thus extracted is estimated at 405 nm. This brown color intensity of the melanin is quenched in the presence of the inhibitor. B16F1 mouse melanoma cells are cultured for 24 hours in a 6 well microtiter plate at a seeding density of 5000 cells per well. Melanin production is induced by α-MSH/cAMP after which the cells are treated with varying non-cytotoxic concentrations of the sample over a period of 9 days with sample treatment at regular intervals of 3 days. The melanin is extracted by 1N NaOH and the absorbance read at 405 nm in a Microplate reader. The inhibitory effect of the sample is calculated based on the degree of inhibition of melanin formation. The results are expressed as IC50 values using Graph pad prism software. The percentage of inhibition of melanin is calculated as follows % Inhibition=C−T/C×100 Where, C-absorbance due to melanin in untreated cells; T-absorbance due to melanin in sample treated cells

| Structure (SMILES) | IC50 |
| --- | --- |
| COc1cc(/C=C/C(=O)N2CCC=CC2=O)cc(OC)c1OC [piperlongumine] | 0.625 µg/mL (≈ 1.97 µM) |
| O=c1cc(CO)occ1O [Kojic acid] | 100 µg/mL (≈ 704 µM) |
